Measurements published in US7122340B2, “Regulatory T cells; methods” (Schering Corporation, priority 2000, dated 2006).

System: naive T cells (CD4+CD62L+)
Assay: Differentiation of naive CD4+ T cells stimulated with antigen and antigen presenting cells; cytokine profile after restimulation (FACS, secreted cytokines)
Assay type: cell-based, mouse
Settings: antigen and APC culture of DO11.10 CD4+ T cells
Procedure: IL-2 is present in the culture after the first 3 days of activation. VitD3 is used at 4×10^-8 M (preferably in the range 4×10^-9 M to 4×10^-7 M) while DEX is used at 10^-8M (preferably in the range of 10^-9 M to 10^-7 M).
The cytokine profiles produced by the cells after restimulation are evaluated after 6 h by FACS analysis, while the quantities are accumulated by the respective cell population in 1 ml for 48 h.
DO.11.10 mice transgenic for an ovalbumin323-339 specific αβTCR were used as a source of antigen specific T cells. […] They were backcrossed on to a BALB/C background and (DO11.10×BALB/C)F1 mice were used as the source of T cells in all experiments. BALB/C (Taconics, Germantown, N.Y.) mice were used to provide splenic antigen presenting cells (APC).
Briefly, immunomagnetic depletion of CD8α^+, B220^+, and Mac-1^+ splenocytes was performed using goat anti-rat Ig coated beads (Biomag, PerSeptive Biosystems, Framingham, Mass.). The depleted population was then stained with anti-CD4-FITC and anti-L-selectin-PE and CD4^+ L-selectin^high cells were sorted using a FACStar^Plus cell sorter (Becton-Dickinson, Mountain View, Calif.). […] After 6 days, T cells were harvested, counted, and restimulated at 2.5×10^4 per well in 200 μl in 96 well plates for phenotype analysis by cytokine secretion. […]

`C=C1/C(=C\C=C2/CCC[C@]3(C)[C@@H]([C@H](C)CCCC(C)(C)O)CC[C@@H]23)C[C@@H](O)C[C@@H]1O` [VitD3, 1,25(OH)-Dihydroxyvitamin D3] was tested, and the “Resulting T cell population / cytokine profile (in words)” value was “drive the development of Th2 cells producing high levels of IL-4 and IL-5 and reduced IFN-γ”.
